Test [1] concerns the target Protein-tyrosine kinase 2-beta (Homo sapiens) (UniProt Q14289). Nature of the test: Inhibition of HA-epitope-tagged Pyk2 FERM domain expressed in HEK293 cells assessed as inhibition of binding to 12A10 antibody by ELISA. Also on record: inhibition: concentration or dose not given beside the values. The note with it: for inhibition: concentration not given here. Format: cell-based. Background: An ELISA detects its analyte on a solid surface through an enzyme-linked reagent.

The target is the same in test [2]. Briefly: Inhibition of Pyk2-mediated stimulation of human SF767 glioma cell migration at 5 uM by radial migration assay relative to control.
Test [3] shares this target. Nature of the test: Binding affinity to human Pyk2 FERM domain by LC/MS depletion assay.
Test [4] has the same target. Briefly: Inhibition of Pyk2-mediated stimulation of human SF767 glioma cell migration at 50 uM by radial migration assay relative to control.

Active and inactive are the calls of the source.

Chain of Protein-tyrosine kinase 2-beta (Homo sapiens) (Q14289 whole entry, looked up, the tested form may be a part): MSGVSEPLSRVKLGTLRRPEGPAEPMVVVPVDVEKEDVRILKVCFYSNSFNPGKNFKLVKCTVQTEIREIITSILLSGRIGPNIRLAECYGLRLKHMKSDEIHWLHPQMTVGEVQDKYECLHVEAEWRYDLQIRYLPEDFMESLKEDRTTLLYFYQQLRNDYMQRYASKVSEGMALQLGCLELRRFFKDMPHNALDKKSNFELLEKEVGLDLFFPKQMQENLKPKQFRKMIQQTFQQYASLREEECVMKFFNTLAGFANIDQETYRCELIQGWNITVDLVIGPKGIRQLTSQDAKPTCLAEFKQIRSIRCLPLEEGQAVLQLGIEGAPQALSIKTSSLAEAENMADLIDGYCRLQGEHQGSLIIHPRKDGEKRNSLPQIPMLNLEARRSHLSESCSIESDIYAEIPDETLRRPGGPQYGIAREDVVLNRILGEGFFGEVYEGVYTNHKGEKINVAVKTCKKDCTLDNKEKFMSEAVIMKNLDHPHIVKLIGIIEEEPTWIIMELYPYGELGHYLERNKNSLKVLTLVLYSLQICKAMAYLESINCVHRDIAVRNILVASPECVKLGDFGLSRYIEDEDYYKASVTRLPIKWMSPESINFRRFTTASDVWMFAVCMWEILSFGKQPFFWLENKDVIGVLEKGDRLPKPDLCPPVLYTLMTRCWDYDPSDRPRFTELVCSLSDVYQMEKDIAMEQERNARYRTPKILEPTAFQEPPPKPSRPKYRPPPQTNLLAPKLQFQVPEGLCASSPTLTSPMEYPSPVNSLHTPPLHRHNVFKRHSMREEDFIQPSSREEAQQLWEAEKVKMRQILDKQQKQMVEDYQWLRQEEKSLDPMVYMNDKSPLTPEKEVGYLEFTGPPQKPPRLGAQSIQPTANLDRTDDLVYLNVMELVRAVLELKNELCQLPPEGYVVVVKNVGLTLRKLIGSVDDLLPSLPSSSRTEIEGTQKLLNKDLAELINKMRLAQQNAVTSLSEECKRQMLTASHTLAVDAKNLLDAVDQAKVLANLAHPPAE

`C=CCOC(=O)NCCSc1nc2ccc(NC(=O)c3cccc(C#N)c3)cc2s1`: in test [1], the outcome was inactive.

Take `Cc1ccc(C(=O)Nc2nnc(C(C)(C)C)s2)c(C2CCN(C(=O)c3nc4ccccc4nc3O)CC2)n1`: the result in test [1] was inactive.

Turning to `C=CCOC(=O)NCCSc1nc2ccc(NC(=O)Cc3ccc([N+](=O)[O-])cc3)cc2s1`, the outcome in test [1] was inactive.

Take `C=CCOC(=O)NCCSc1nc2ccc(NC(=O)c3ccccc3S(C)(=O)=O)cc2s1`: the outcome in test [1] was inactive.

In the case of `CCCCNS(=O)(=O)c1cccc(NC(=O)CNC(=O)c2ccoc2)c1`, the outcome in test [1] was inactive.

`CN(C)c1ccc(NC(=S)N2CCC(c3nc(C(=O)NCCc4c[nH]c5ccc(F)cc45)cs3)CC2)cc1`: the result in test [1] was inactive.

For `C=CCOC(=O)NCCSc1nc2ccc(NC(=O)/C=C/c3ccc([N+](=O)[O-])o3)cc2s1`, the result in test [1] was inactive.

As for `C=CCOC(=O)NCCSc1nc2ccc(NC(=O)c3c(C)noc3C)cc2s1`, in test [1], the outcome was inactive.

As to `O=C(Nc1ccccc1N1CCOCC1)c1csc(C2CCN(C(=O)NCCC3=CCCCC3)CC2)n1`, the outcome in test [1] was inactive.

Consider `CCOc1ccccc1CNC(=O)c1ccc(C)nc1C1CCN(C(=O)/C=C/c2cccc(O)c2)CC1`, for which the outcome in test [1] was inactive.

For the compound `C=CCOC(=O)NCCSc1nc2ccc(NC(=O)c3cc(NC(C)=O)cc(NC(C)=O)c3)cc2s1`, in test [1], the result was inactive.

Take `O=C(NCC(=O)N1CCC2(CC1)CCN(C(=S)NC[C@@H]1CCCO1)C2)c1ccco1`: the result in test [1] was inactive.

`C=CCOC(=O)NCCSc1nc2ccc(NC(=O)CCn3c(=O)oc4ccccc43)cc2s1`: the result in test [1] was inactive.

For `COc1ccc(C(N)=O)cc1NC(=O)c1csc(C2CCN(C(=O)c3cnn(-c4ccccc4)c3C)CC2)n1`, the outcome in test [1] was inactive.

For `CC(=O)Nc1cccc(OCCCNC(=O)c2csc(C3CCN(C(=O)C4CCCCC4)CC3)n2)c1`, the result in test [1] was inactive.

In the case of `Cc1cc(C)cc(NC(=O)N2CCC3(CCN(C(=O)CCCC[C@@H]4SC[C@@H]5NC(=O)N[C@@H]54)C3)CC2)c1`, in test [1], the result was inactive.

Take `Cc1ccc(C(=O)NCCc2cccs2)c(C2CCN(C(=O)c3nc4ccccc4nc3O)CC2)n1`: in test [1], the outcome was inactive.

The inhibition is how much of the control response was suppressed. In the case of `C=CCOC(=O)NCCSc1nc2ccc(NC(=O)c3csnn3)cc2s1`, the inhibition in test [2] was 50%; in test [4], 85%; in test [1], 33%. For the same compound, the outcome in test [3] was Active.

Consider `O=C(COc1ccccc1)NNC(=O)c1csc(C2CCN(C(=O)NCCC3=CCCCC3)CC2)n1`, for which the result in test [1] was inactive.

Consider `CCCOCCNC(=O)c1ccc(C)nc1C1CCN(C(=O)c2cc(NC(C)=O)ccc2O)CC1`, for which the result in test [1] was inactive.

`COc1ccccc1NC(=O)N1CCC2(CC1)CCN(S(=O)(=O)c1sc(NC(C)=O)nc1C)C2`: in test [1], the result was inactive.

On to `C=CCOC(=O)NCCSc1nc2ccc(NC(=O)C(C)(C)n3cncn3)cc2s1`, for which, in test [1], the outcome was inactive.

Consider `COC(=O)c1ccc(NS(=O)(=O)c2ccc(NC(C)=O)c(Cl)c2)cc1OC`, for which, in test [1], the outcome was inactive.

With `COc1ccc(C(N)=O)cc1NC(=O)c1csc(C2CCN(C(=O)c3cc(OC)c4ccccc4n3)CC2)n1`, in test [1], the outcome was inactive.

For `C=CCOC(=O)NCCSc1nc2ccc(NC(=O)CSc3ccccn3)cc2s1`, in test [1], the inhibition is 22%.

In the case of `C=CCOC(=O)NCCSc1nc2ccc(NC(=O)c3coc4c3C(=O)CCC4)cc2s1`, the result in test [1] was inactive.

With `Cc1ccc(C(=O)NCCCn2ccnc2)c(C2CCN(C(=O)/C=C/c3cccc(O)c3)CC2)n1`, the outcome in test [1] was inactive.

Turning to `COc1ccc(C(=O)CCC(=O)N2CCC(c3nc(C(=O)Nc4cc(C(N)=O)ccc4OC)cs3)CC2)cc1`, the outcome in test [1] was inactive.

On to `Cc1ccc(C(=O)NCCc2cc3ccccc3[nH]2)c(C2CCN(C(=O)CNC(=O)Nc3ccccc3)CC2)n1`, for which, in test [1], the inhibition amounted to 6%.

In the case of `O=C(NCC(=O)N1CCC2(CC1)CCN(C(=O)Cc1n[nH]c(=O)c3ccccc13)C2)c1ccco1`, the inhibition in test [1] stood at 18%.

Turning to `O=C(NNC(=O)c1n[nH]c2ccccc12)c1csc(C2CCN(C(=O)NCCC3=CCCCC3)CC2)n1`, in test [1], the outcome was inactive.

`Cc1cc(NS(=O)(=O)c2ccc3c(c2)CN(C(=O)C(F)(F)F)CC3)nc(C)n1`: in test [1], the outcome was inactive.

For `N#Cc1c(Cl)cccc1Oc1ccc(S(=O)(=O)Nc2ccc(S(=O)(=O)Nc3ccccn3)cc2)cc1`, the result in test [1] was inactive.

Regarding `CN(C)c1ccc(NC(=S)N2CCC(c3nc(C(=O)NCCOc4ccccc4Cl)cs3)CC2)cc1`, the outcome in test [1] was inactive.

For the compound `C=CCOC(=O)NCCSc1nc2ccc(NC(=O)[C@H]3CCOC3)cc2s1`, in test [1], the result was inactive.

For `COc1ccc(OC)c(NC(=S)NCC(=O)N[C@@H](CC(C)C)C(N)=O)c1`, the outcome in test [1] was inactive.

As for `C=CCOC(=O)NCCSc1nc2ccc(NC(=O)c3cc(C)n(C)n3)cc2s1`, the outcome in test [1] was inactive.

On to `C=CCOC(=O)NCCSc1nc2ccc(NC(=O)c3ccc([N+](=O)[O-])cc3F)cc2s1`, for which, in test [1], the result was inactive.

Regarding `C=CCOC(=O)NCCSc1nc2ccc(NC(=O)[C@H]3CCCN3C(=O)c3cccs3)cc2s1`, in test [1], the outcome was inactive.

`O=C(CN1CCCN(C(=O)CNC(=O)C(F)(F)F)CC1)Nc1ccc(F)cc1F`: the result in test [1] was inactive.

`CN(C)c1ccc(NC(=S)N2CCC(c3nc(C(=O)NC[C@@H]4COc5ccccc5O4)cs3)CC2)cc1`: the outcome in test [1] was inactive.

With `C=CCOC(=O)NCCSc1nc2ccc(NC(=O)CSc3nc(C)cc(C)n3)cc2s1`, the inhibition in test [1] is 19%.

Turning to `C#CC[C@H](NC(C)=O)C(=O)Nc1ccc2nc(SCCNC(=O)OCC=C)sc2c1`, the result in test [1] was inactive.

On to `C=CCOC(=O)NCCSc1nc2ccc(NC(=O)[C@H]3CC(=O)c4ccccc43)cc2s1`, for which the inhibition in test [1] was found to be 11%.

With `CC(=O)Nc1ccc(S(=O)(=O)NNC(=O)Nc2c(C(C)C)cccc2C(C)C)cc1Cl`, the outcome in test [1] was inactive.

On to `C=CCOC(=O)NCCSc1nc2ccc(NC(=O)CNC(=O)OC)cc2s1`, for which the result in test [1] was inactive.

Take `Cc1cccc(C)c1NC(=O)CN1CCCN(C(=O)CNC(=O)c2ccco2)CC1`: in test [1], the result was inactive.

For the compound `CC(=O)Nc1ccc(O)c(C(=O)N2CCC(c3nc(C)ccc3C(=O)NCCc3cccs3)CC2)c1`, the result in test [1] was inactive.

As for `Cc1ccc(C(=O)NCCc2c[nH]c3ccccc23)c(C2CCN(C(=O)c3ccc(NC(N)=S)cc3)CC2)n1`, the outcome in test [1] was inactive.

As to `C=CCOC(=O)NCCSc1nc2ccc(NC(=O)C3CCN(C(=O)c4ccccc4)CC3)cc2s1`, the outcome in test [1] was inactive.

For the compound `O=C(N1CCc2ccc(S(=O)(=O)Nc3ccc(Cl)nn3)cc2C1)C(F)(F)F`, the result in test [1] was inactive.

Take `C=CCOC(=O)NCCSc1nc2ccc(NC(=O)c3c([N+](=O)[O-])c(C)nn3C)cc2s1`: the outcome in test [1] was inactive.

`CCOC(=O)NNC(=O)c1csc(C2CCN(C(=O)Cc3c[nH]c4ccccc34)CC2)n1`: the outcome in test [1] was inactive.

As for `O=C(CN1CCCN(C(=O)CNC(=O)c2ccco2)CC1)NCCc1ccccc1`, in test [1], the result was inactive.

Regarding `C=CCOC(=O)NCCSc1nc2ccc(NC(=O)CS(=O)(=O)c3ccc(C)cc3)cc2s1`, in test [1], the result was inactive.

Take `CC(C)(C)c1cc(O)nc(SCC(=O)N2CCCN(CC(=O)Nc3ccccc3C(C)(C)C)CC2)n1`: the outcome in test [1] was inactive.

For `O=C(NNC(=O)[C@H]1CCCNC1=O)c1csc(C2CCN(C(=O)NCCC3=CCCCC3)CC2)n1`, the result in test [1] was inactive.

With `Cc1nc(C)c(C(=O)NNC(=O)c2csc(C3CCN(C(=O)Cc4c[nH]c5ccccc45)CC3)n2)s1`, in test [1], the outcome was inactive.

Take `CN(C)c1ccc(NC(=S)N2CCC(c3nc(C(=O)NC[C@H](c4ccc[nH]4)C(F)(F)F)cs3)CC2)cc1`: the outcome in test [1] was inactive.

Take `C=CCOC(=O)NCCSc1nc2ccc(NC(=O)Cc3nc(C)sc3C)cc2s1`: the outcome in test [1] was inactive.

For `CC(=O)Nc1ccc(S(=O)(=O)NNC(=O)Nc2ccccc2-c2ccccc2)cc1Cl`, the inhibition in test [1] stood at 24%.

Take `COc1ccc(C(N)=O)cc1NC(=O)c1csc(C2CCN(C(=O)C#Cc3ccccc3)CC2)n1`: the result in test [1] was inactive.

As for `CCOC(=O)c1nc(NC(=O)c2csc(C3CCN(C(=O)NCCC4=CCCCC4)CC3)n2)cn1C`, the result in test [1] was inactive.

`C=CCOC(=O)NCCSc1nc2ccc(NC(=O)C3(C#N)CC3)cc2s1`: the result in test [1] was inactive.

In the case of `COc1ccc(NC(C)=O)cc1NS(=O)(=O)c1ccc(NC(C)=O)cc1`, in test [1], the inhibition is 18%.

As to `COc1ccc(C(N)=O)cc1NC(=O)c1csc(C2CCN(C(=O)c3cc4ccccc4o3)CC2)n1`, the outcome in test [1] was inactive.

The values are drawn from ChEMBL document CHEMBL1156798, “Structural conservation in band 4.1, ezrin, radixin, moesin (FERM) domains as a guide to identify inhibitors of the proline-rich tyrosine kinase 2” (J Med Chem, 2010).
